From patent publication US11440913B2, “Aminoimidazopyridazines as kinase inhibitors” (BRISTOL-MYERS SQUIBB COMPANY, priority 2017, dated 2022)

Key:
[1] = biological target: His-GST-TVMV-hRIPK1(1-324) (Homo sapiens (Human), UniProt Q13546); assay: RIPK1 HTRF Binding Assay; details: HTRF binding, 1 h at rt; read-out: RIPK1 (IC50)
Procedure, shortened: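 HTRF probe-displacement binding: 1 nM His-GST-TVMV-hRIPK1(1-324) (baculovirus construct), 90.6 nM probe, 0.2 nM anti-GST-Tb in 20 mM HEPES, 10 mM MgCl2, 0.015% Brij-35, 4 mM DTT, 0.05 mg/mL BSA. Incubated 1 h at rt; FRET 520/495 nm ratio, inhibition relative to DMSO-only wells.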

[2] = test system: MLKL phosphorylation in HT29-L23 human colorectal adenocarcinoma cells; assay: MLKL Phosphorylation High-Content Assay; assay type: cell-based; details: Homo sapiens, 6 h, necroptosis induced with TNFα, SMAC mimetic and Z-VAD, read-out: pMLKL (IC50)
Procedure, shortened: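 HT29-L23 cells pretreated 30 min at 37 °C with compound (6.25 to 0.106 μM final), then necroptosis induced with TNFα 35 ng/mL, SMAC mimetic 700 nM and Z-VAD 140 nM for 6 h. Fixed cells immunostained for MLKL pS358 and imaged; IC50 and Ymax from 4-parameter logistic fit.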

Chain of His-GST-TVMV-hRIPK1(1-324) (Q13546 1-324): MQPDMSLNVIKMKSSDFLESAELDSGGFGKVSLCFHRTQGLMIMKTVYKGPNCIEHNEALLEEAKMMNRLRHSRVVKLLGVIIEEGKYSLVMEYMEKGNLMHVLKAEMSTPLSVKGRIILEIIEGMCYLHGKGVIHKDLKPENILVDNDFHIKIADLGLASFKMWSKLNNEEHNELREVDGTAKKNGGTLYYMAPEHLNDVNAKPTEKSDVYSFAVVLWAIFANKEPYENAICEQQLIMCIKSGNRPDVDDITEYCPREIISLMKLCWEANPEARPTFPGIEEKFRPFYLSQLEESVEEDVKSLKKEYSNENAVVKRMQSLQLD

Row | Structure (SMILES) | IC50 [1] | IC50 [2]
1 | CC(=O)Nc1cn2nc(-c3ccc(Cl)c(C(=O)N[C@H](C)c4cc(OC(F)(F)F)ccc4F)c3F)ccc2n1 [Example 388, 6-chloro-3-{2-acetamidoimidazo [1,2-b]pyridazin-6-yl}-2-fluoro-N-[(1R)-1-[2-fluoro-5-(trifluoromethoxy)phenyl]ethyl] benzamide] | 7 nM | 2 nM
2 | CC(=O)Nc1cn2nc(-c3ccc(Cl)c(C(=O)NCc4cc(-c5cnn(C)c5)ccc4F)c3F)ccc2n1 [Example 389, 6-chloro-3-{2-acetamidoimidazo [1,2-b]pyridazin-6-yl}-2-fluoro-N-{[2-fluoro-5-(1-methyl-1H-pyrazol-4-yl)phenyl]methyl} benzamide] | 4 nM | 8 nM
3 | CC(=O)Nc1cn2nc(-c3ccc(Cl)c(C(=O)NCC[C@H](O)c4ccc(Cl)cc4)c3F)ccc2n1 [Example 390, 6-chloro-N-[(3S)-3-(4-chlorophenyl)-3-hydroxypropyl]-3-{2-acetamidoimidazo [1,2-b]pyridazin-6-yl}-2-fluorobenzamide] | 5 nM | 3 nM
4 | CC(=O)Nc1cn2nc(-c3ccc(Cl)c(C(=O)NCc4ccc(OC(F)(F)F)cc4)c3F)ccc2n1 [Example 391, 6-chloro-3-{2-acetamidoimidazo [1,2-b]pyridazin-6-yl}-2-fluoro-N-{[4-(trifluoromethoxy)phenyl]methyl} benzamide] | 105 nM | 274 nM
5 | CC(=O)Nc1cn2nc(-c3cc(C(=O)N[C@H](C)c4cc(OC(F)(F)F)ccc4F)c(Cl)cc3F)ccc2n1 [Example 392, 2-chloro-5-{2-acetamidoimidazo [1,2-b]pyridazin-6-yl}-4-fluoro-N-[(1R)-1-[2-fluoro-5-(trifluoromethoxy)phenyl]ethyl] benzamide] | 36 nM | 72 nM
6 | CC(=O)Nc1cn2nc(-c3ccc(C)c(C(=O)NCc4cc(OC(F)(F)F)ccc4F)c3)ccc2n1 [Example 394, 5-{2-acetamidoimidazo [1,2-b]pyridazin-6-yl}-N-{[2-fluoro-5-(trifluoromethoxy)phenyl]methyl}-2-methylbenzamide] | 3 nM | 3 nM
7 | Cc1ccc(-c2ccc3nc(NC(=O)[C@H](C)O)cn3n2)cc1C(=O)NCc1cc(OC(F)(F)F)ccc1F [Example 395, (S)-N-(2-fluoro-5-(trifluoromethoxy)benzyl)-5-(2-(2-hydroxypropanamido)imidazo[1,2-b]pyridazin-6-yl)-2-methylbenzamide] | 7 nM | 25 nM
8 | CC(=O)Nc1cn2nc(-c3ccc(C)c(C(=O)N[C@H](C)c4cc(OC(F)(F)F)ccc4F)c3)ccc2n1 [Example 396, (R)-5-(2-acetamidoimidazo [1,2-b]pyridazin-6-yl)-N-(1-(2-fluoro-5-(trifluoromethoxy)phenyl)ethyl)-2-methylbenzamide] | 1 nM | 7 nM
9 | CC(=O)Nc1cn2nc(-c3ccc(C)c(C(=O)NCC[C@@H](O)c4ccc(Cl)cc4)c3)ccc2n1 [Example 397, N-[(3R)-3-(4-chlorophenyl)-3-hydroxypropyl]-5-{2-acetamidoimidazo [1,2-b]pyridazin-6-yl}-2-methylbenzamide] | 3 nM | 3 nM
10 | CC(=O)Nc1cn2nc(-c3ccc(C)c(C(=O)NCC[C@H](O)c4ccc(Cl)cc4)c3)ccc2n1 [Example 398, N-[(3S)-3-(4-chlorophenyl)-3-hydroxypropyl]-5-{2-acetamidoimidazo [1,2-b]pyridazin-6-yl}-2-methylbenzamide] | 5 nM | 2 nM
11 | CC(=O)Nc1cn2nc(-c3ccc(C)c(C(=O)NCC(O)COc4ccccc4)c3)ccc2n1 (stereo not shown) [Example 400, 5-{2-acetamidoimidazo [1,2-b]pyridazin-6-yl}-N-(2-hydroxy-3-phenoxypropyl)-2-methylbenzamide] | 11 nM | 11 nM
12 | CC(=O)Nc1cn2nc(-c3ccc(C)c(C(=O)NC[C@H]4C[C@@H]4c4ccc(F)cc4)c3)ccc2n1 [Example 401, 5-{2-acetamidoimidazo [1,2-b]pyridazin-6-yl}-N-{[(1S, 2S)-2-(4-fluorophenyl)cyclopropyl]methyl}-2-methylbenzamide] | 105 nM | 77 nM
13 | CC(=O)Nc1cn2nc(-c3ccc(C)c(C(=O)NCc4c(F)cccc4-c4cnn(C)c4)c3)ccc2n1 [Example 402, 5-{2-acetamidoimidazo [1,2-b]pyridazin-6-yl}-N-{[2-fluoro-6-(1-methyl-1H-pyrazol-4-yl)phenyl]methyl}-2-methylbenzamide] | 56 nM | 94 nM
14 | CC(=O)Nc1cn2nc(-c3ccc(C)c(C(=O)NCc4cc(F)ccc4-c4cnn(C)c4)c3)ccc2n1 [Example 403, 5-{2-acetamidoimidazo [1,2-b]pyridazin-6-yl}-N-{[5-fluoro-2-(1-methyl-1H-pyrazol-4-yl)phenyl]methyl}-2-methylbenzamide] | 67 nM | 262 nM
15 | CC(=O)Nc1cn2nc(-c3ccc(C)c(C(=O)NCc4cc(C(=O)N5CC(F)(F)C5)ccc4F)c3)ccc2n1 [Example 404, N-{[5-(3,3-difluoroazetidine-1-carbonyl)-2-fluorophenyl]methyl}-5-{2-acetamidoimidazo [1,2-b]pyridazin-6-yl}-2-methylbenzamide] | 52 nM | 259 nM
16 | CC(=O)Nc1cn2nc(-c3ccc(C)c(C(=O)NCc4ccc(F)cc4C(=O)N4CCC(F)(F)C4)c3)ccc2n1 [Example 405, N-{[2-(3,3-difluoropyrrolidine-1-carbonyl)-4-fluorophenyl]methyl}-5-{2-acetamidoimidazo [1,2-b]pyridazin-6-yl}-2-methylbenzamide] | 14 nM | 99 nM
17 | CC(=O)Nc1cn2nc(-c3ccc(C)c(C(=O)NCc4cc(C(=O)N5CCC(C)(C)C5)ccc4F)c3)ccc2n1 [Example 406, N-{[5-(3,3-dimethylpyrrolidine-1-carbonyl)-2-fluorophenyl]methyl}-5-{2-acetamidoimidazo [1,2-b]pyridazin-6-yl}-2-methylbenzamide] | 163 nM | 454 nM
18 | CC(=O)Nc1cn2nc(-c3ccc(C)c(C(=O)NCc4cc(F)cc(F)c4C(=O)N4CC[C@H](O)C4)c3)ccc2n1 [Example 407, N-({3,5-difluoro-2-[(3S)-3-hydroxypyrrolidine-1-carbonyl]phenyl}methyl)-5-{2-acetamidoimidazo [1,2-b]pyridazin-6-yl}-2-methylbenzamide] | 37 nM | 388 nM
19 | CC(=O)Nc1cn2nc(-c3ccc(C)c(C(=O)NCc4cc(F)ccc4C(=O)N4CCCCC4)c3)ccc2n1 [Example 408, 5-{2-acetamidoimidazo [1,2-b]pyridazin-6-yl}-N-{[5-fluoro-2-(piperidine-1-carbonyl)phenyl]methyl}-2-methylbenzamide] | 8 nM | 8 nM
20 | CC(=O)Nc1cn2nc(-c3ccc(C)c(C(=O)NCc4cc(-c5cnn(C6CC6)c5)ccc4F)c3F)ccc2n1 [Example 409, N-{[5-(1-cyclopropyl-1H-pyrazol-4-yl)-2-fluorophenyl]methyl}-3-{2-acetamidoimidazo [1,2-b]pyridazin-6-yl}-2-fluoro-6-methylbenzamide] | 2 nM | 13 nM
21 | CC(=O)Nc1cn2nc(-c3ccc(C)c(C(=O)NCc4cc(F)ccc4-c4cnn(C5CC5)c4)c3F)ccc2n1 [Example 410, N-{[2-(1-cyclopropyl-1H-pyrazol-4-yl)-5-fluorophenyl]methyl}-3-{2-acetamidoimidazo [1,2-b]pyridazin-6-yl}-2-fluoro-6-methylbenzamide] | 39 nM | 77 nM
22 | CC(=O)Nc1cn2nc(-c3ccc(C)c(C(=O)NCc4ccc(F)c(F)c4C(=O)N4CCC(F)(F)C4)c3F)ccc2n1 [Example 411, N-{[2-(3,3-difluoropyrrolidine-1-carbonyl)-3,4-difluorophenyl]methyl}-3-{2-acetamidoimidazo [1,2-b]pyridazin-6-yl}-2-fluoro-6-methylbenzamide] | 9 nM | 25 nM
23 | [2H]C([2H])([2H])[C@@H](NC(=O)c1c(C)ccc(-c2ccc3nc(NC(C)=O)cn3n2)c1F)c1cc(OC(F)(F)F)ccc1F [Example 412, 3-{2-acetamidoimidazo [1,2-b]pyridazin-6-yl}-2-fluoro-N-[(1R)-1-[2-fluoro-5-(trifluoromethoxy)phenyl](2,2,2-Â^2Hâ,f)ethyl]-6-methylbenzamide] | 4 nM | 1 nM
24 | [2H]C([2H])([2H])[C@@H](NC(=O)c1c(C)ccc(-c2ccc3nc(NC(C)=O)cn3n2)c1F)c1cc(C(F)(F)F)ccc1F [Example 413, 3-{2-acetamidoimidazo [1,2-b]pyridazin-6-yl}-2-fluoro-N-[(1R)-1-[2-fluoro-5-(trifluoromethyl)phenyl](2,2,2-Â^2Hâ,f)ethyl]-6-methylbenzamide] | 3 nM | 1 nM
25 | COc1c(F)cc(F)cc1CNC(=O)c1c(C)ccc(-c2ccc3nc(NC(C)=O)cn3n2)c1F [Example 414, N-[(3,5-difluoro-2-methoxyphenyl)methyl]-3-{2-acetamidoimidazo [1,2-b]pyridazin-6-yl}-2-fluoro-6-methylbenzamide] | 91 nM | 384 nM
26 | CC(=O)Nc1cn2nc(-c3cc(C(=O)NCc4cc(C(=O)N5CCCC5(C)C)ccc4F)c(C)cc3F)ccc2n1 [Example 416, N-{[5-(2,2-dimethylpyrrolidine-1-carbonyl)-2-fluorophenyl]methyl}-5-{2-acetamidoimidazo [1,2-b]pyridazin-6-yl}-4-fluoro-2-methylbenzamide] | 13 nM | 72 nM
